IC50 data for two compounds are collected here from patent publication US6642251B1, “Geometrically restricted 2-indolinone derivatives as modulators of protein kinase activity” (Sugen, Inc., priority 1998, dated 2003).

The assay has as its system HUV-EC-C cells (human umbilical vein endothelial cells). As to the kind of experiment: HUV-EC-C assay, VEGF-stimulated (VEGF HUVEC). The format is cell-based. Here is the method:
The following protocol may also be used to measure a compound's activity against PDGF-R, FGF-R, VEGF, aFGF or Flk-1/KDR, all of which are naturally expressed by HUV-EC cells.
1. Wash and trypsinize HUV-EC-C cells (human umbilical vein endothelial cells, (American Type Culture Collection; catalogue no. 1730 CRL). Wash with Dulbecco's phosphate-buffered saline (D-PBS; obtained from Gibco BRL; catalogue no. 14190-029) 2 times at about 1 ml/10 cm^2 of tissue culture flask. Trypsinize with 0.05% trypsin-EDTA in non-enzymatic cell dissociation solution (Sigma Chemical Company; catalogue no. C-1544). The 0.05% trypsin is made by diluting 0.25% trypsin/l mM EDTA (Gibco; catalogue no. 25200-049) in the cell dissociation solution. Trypsinize with about 1 ml/25-30 cm^2 of tissue culture flask for about 5 minutes at 37° C. After cells have detached from the flask, add an equal volume of assay medium and transfer to a 50 ml sterile centrifuge tube (Fisher Scientific; catalogue no. 05-539-6).
2. Wash the cells with about 35 ml assay medium in the 50 ml sterile centrifuge tube by adding the assay medium, centrifuge for 10 minutes at approximately 200×g, aspirate the supernatant, and resuspend with 35 ml D-PBS. Repeat the wash two more times with D-PBS, resuspend the cells in about 1 ml assay medium/15 cm^2 of tissue culture flask. […]

Each structure is given as a SMILES string. pIC50: −log10 of the molar value.

In the case of `O=C1Nc2ccccc2/C1=C1\CCc2ccccc21` [Compound 10, 3-Indan-1-ylidene-1,3-dihydroindol-2-one], the pIC50 is 6.48.

The compound `COc1ccc2c(c1)C(CC(=O)O)C/C2=C1/C(=O)Nc2ccccc21` (centres unmarked) [Compound 11, [6-Methoxy-3-(2-oxo-1,2-dihydroindol-3-ylidene)-indan-1-yl]acetic Acid] showed a pIC50 of 7.30.
